Data taken from ChEMBL document CHEMBL1201862, “PubChem BioAssay data set” (2004).
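The compound was tested at five concentrations on cells cultured in 96-well plates, with a 48-hour exposure period. GI50 marks 50% less growth.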 The source made the active and inactive calls. No stated cut-off is given here; in the data, active = GI50 up to about 1.1 µM and inactive = higher.

Experiments:
Test in all cases: NCI tumour cell line growth inhibition, 48 h
PC-3 = test system: PC-3
HOP-62 = test system: HOP-62
NCI-H522 = test system: NCI-H522
KM12 = test system: KM12
LOX IMVI = test system: LOX IMVI
RPMI-8226 = test system: RPMI-8226
T47D = test system: T47D
UACC-257 = test system: UACC-257
CAKI-1 = test system: CAKI-1
SK-MEL-2 = test system: SK-MEL-2
HCT-116 = test system: HCT-116
DU-145 = test system: DU-145
SW-620 = test system: SW-620
M14 = test system: M14
SF-539 = test system: SF-539
HCC 2998 = test system: HCC 2998
A498 = test system: A498
IGROV-1 = test system: IGROV-1
NCI-H226 = test system: NCI-H226

Row | Compound | GI50 (PC-3) | GI50 (HOP-62) | GI50 (NCI-H522) | GI50 (KM12) | GI50 (LOX IMVI) | GI50 (RPMI-8226) | GI50 (T47D) | GI50 (UACC-257) | GI50 (CAKI-1) | GI50 (SK-MEL-2) | GI50 (HCT-116) | GI50 (DU-145) | GI50 (SW-620) | GI50 (M14) | GI50 (SF-539) | GI50 (HCC 2998) | GI50 (A498) | GI50 (IGROV-1) | GI50 (NCI-H226)
1 | C1CN(C23OC4(N5CCOCC5)C5C6CC(C7C6C4C72)C53)CCO1 (stereo not drawn) | > 100 µM (inactive) | > 100 µM (inactive) | > 83.4 µM (inactive) | > 100 µM (inactive) | > 100 µM (inactive) | > 100 µM (inactive) | > 100 µM (inactive) | > 100 µM (inactive) | > 100 µM (inactive) | > 100 µM (inactive) | > 100 µM (inactive) | > 100 µM (inactive) | > 100 µM (inactive) | > 100 µM (inactive) | > 100 µM (inactive) | > 100 µM (inactive) | > 100 µM (inactive) | > 100 µM (inactive) | > 100 µM (inactive)
2 | O=C(O)CN1CCN2CCOCCN(CC1)CCN(CC(=O)O)CC2 | > 100 µM (inactive) | > 100 µM (inactive) | > 100 µM (inactive) | > 100 µM (inactive) | > 100 µM (inactive) | > 100 µM (inactive) | > 100 µM (inactive) | > 100 µM (inactive) | > 100 µM (inactive) | > 100 µM (inactive) | > 100 µM (inactive) | > 100 µM (inactive) | > 100 µM (inactive) | > 100 µM (inactive) | > 100 µM (inactive) | > 100 µM (inactive) | > 100 µM (inactive) | > 100 µM (inactive) | > 100 µM (inactive)
3 | O=[N+]([O-])c1cc(Cl)cc2cc(Br)cnc12 | > 31.6 µM (inactive) | > 31.6 µM (inactive) | 29.6 µM (inactive) | > 10 µM (inactive) | > 31.6 µM (inactive) | > 31.6 µM (inactive) | > 31.6 µM (inactive) | 31.1 µM (inactive) | > 10 µM (inactive) | 39.9 µM (inactive) | > 31.6 µM (inactive) | > 31.6 µM (inactive) |  | > 31.6 µM (inactive) | > 31.6 µM (inactive) | > 31.6 µM (inactive) | 23.6 µM (inactive) |  | 29.6 µM (inactive)
4 | COC(=O)c1cc(NC(=O)Cn2c3ccccc3c3ccccc32)cn1C | 31 µM (inactive) | 25.6 µM (inactive) | 28.3 µM (inactive) | 38.2 µM (inactive) | 53.3 µM (inactive) | 19.5 µM (inactive) | > 100 µM (inactive) | 53.8 µM (inactive) | 84.5 µM (inactive) | 47.9 µM (inactive) | 46.2 µM (inactive) | > 100 µM (inactive) | > 100 µM (inactive) | > 100 µM (inactive) | 23.9 µM (inactive) | 78.9 µM (inactive) | > 100 µM (inactive) | 24.3 µM (inactive) | 21.6 µM (inactive)
5 | O=S(=O)(N1CCCCN(S(=O)(=O)C(F)(F)F)CCCN(S(=O)(=O)C(F)(F)F)CCCCN(S(=O)(=O)C(F)(F)F)CCCN(S(=O)(=O)C(F)(F)F)CCCCN(S(=O)(=O)C(F)(F)F)CCCN(S(=O)(=O)C(F)(F)F)CCCCN(S(=O)(=O)C(F)(F)F)CCC1)C(F)(F)F | > 31.6 µM (inactive) | > 31.6 µM (inactive) | > 31.6 µM (inactive) | > 31.6 µM (inactive) | > 31.6 µM (inactive) | 78.7 µM (inactive) | > 31.6 µM (inactive) | > 31.6 µM (inactive) | > 31.6 µM (inactive) | > 100 µM (inactive) | > 31.6 µM (inactive) | > 31.6 µM (inactive) | > 31.6 µM (inactive) | > 31.6 µM (inactive) | > 31.6 µM (inactive) | > 31.6 µM (inactive) | > 31.6 µM (inactive) | > 31.6 µM (inactive) | > 31.6 µM (inactive)
6 | Oc1ccccc1C1=NOC(c2ccc(C(F)(F)F)cc2)C1 (stereo not drawn) | > 50 µM (inactive) | > 50 µM (inactive) | > 50 µM (inactive) | > 50 µM (inactive) | > 50 µM (inactive) | > 50 µM (inactive) | 0.92 µM (active) | > 50 µM (inactive) | > 50 µM (inactive) | > 46.1 µM (inactive) | > 50 µM (inactive) | > 50 µM (inactive) | > 50 µM (inactive) | > 50 µM (inactive) | > 50 µM (inactive) | > 50 µM (inactive) | > 50 µM (inactive) | 0.527 µM (active) | > 50 µM (inactive)
7 | COC(=O)[C@H](Cc1ccccc1)NP(=O)(O)OCC1OC(n2cc(C)c(=O)[nH]c2=O)CC1N=[N+]=[N-] (stereo partly drawn) | > 100 µM (inactive) | > 100 µM (inactive) | > 100 µM (inactive) | > 100 µM (inactive) | > 100 µM (inactive) | > 100 µM (inactive) | > 100 µM (inactive) | > 100 µM (inactive) | > 100 µM (inactive) | > 100 µM (inactive) | > 100 µM (inactive) | > 100 µM (inactive) | > 100 µM (inactive) | > 100 µM (inactive) | > 100 µM (inactive) | > 100 µM (inactive) | > 100 µM (inactive) | > 100 µM (inactive) | > 100 µM (inactive)
8 | CC1OC(OC2C(Oc3cc(O)c4c(c3)O[C@H](c3ccc(O)cc3)CC4=O)OC(CO)C(O)C2O)C(O)C(O)C1O (stereo partly drawn) | > 100 µM (inactive) | > 100 µM (inactive) | > 100 µM (inactive) | > 100 µM (inactive) | > 100 µM (inactive) | > 100 µM (inactive) | > 100 µM (inactive) | > 100 µM (inactive) | > 100 µM (inactive) | > 100 µM (inactive) | > 100 µM (inactive) | > 100 µM (inactive) | > 100 µM (inactive) | > 100 µM (inactive) | > 100 µM (inactive) | > 100 µM (inactive) | > 100 µM (inactive) | > 100 µM (inactive) | > 100 µM (inactive)
9 | Nc1nc(N)c(N=O)c(Nc2ccc(O)cc2)n1 | 32.2 µM (inactive) | 37.5 µM (inactive) | 15.9 µM (inactive) | > 57.4 µM (inactive) | 30.3 µM (inactive) | > 44.4 µM (inactive) | 14.9 µM (inactive) | > 66.8 µM (inactive) | > 45.4 µM (inactive) | > 62.1 µM (inactive) | > 73.3 µM (inactive) | 34.6 µM (inactive) | > 60.5 µM (inactive) | 6.05 µM (inactive) | 6.56 µM (inactive) | 72.3 µM (inactive) | > 55.8 µM (inactive) | 7.82 µM (inactive) | 23.7 µM (inactive)
10 | C=C1CC/C=C(\C)C(=O)C[C@@H]2[C@@H]1CC2(C)C [BUDDLEDIN C] | 9.14 µM (inactive) | 15.3 µM (inactive) | 0.439 µM (active) | 15 µM (inactive) | 1.17 µM (inactive) | 2.02 µM (inactive) | 2.31 µM (inactive) | 4.66 µM (inactive) | 1.38 µM (inactive) | 17.5 µM (inactive) | 1.17 µM (inactive) | 3.16 µM (inactive) | 1.1 µM (active) | 3.69 µM (inactive) | 2.31 µM (inactive) | 3.4 µM (inactive) | 8.59 µM (inactive) | 3.26 µM (inactive) | 14.8 µM (inactive)
11 | Nc1nc(-c2cc(-c3cccc4ccccc34)nc(N)n2)cc(-c2cccc3ccccc23)n1 | > 100 µM (inactive) | > 100 µM (inactive) | > 100 µM (inactive) | > 100 µM (inactive) | > 100 µM (inactive) | > 100 µM (inactive) | > 100 µM (inactive) | > 100 µM (inactive) | > 100 µM (inactive) | > 100 µM (inactive) | > 100 µM (inactive) | > 100 µM (inactive) | > 100 µM (inactive) | > 100 µM (inactive) | > 100 µM (inactive) | > 100 µM (inactive) | > 100 µM (inactive) | > 100 µM (inactive) | > 100 µM (inactive)
12 | CCSc1nc(=S)n(-c2ccccc2)c(C)c1C(C)=O | > 100 µM (inactive) | > 100 µM (inactive) | > 100 µM (inactive) | > 100 µM (inactive) | > 100 µM (inactive) | > 100 µM (inactive) | > 100 µM (inactive) | > 100 µM (inactive) | > 100 µM (inactive) | > 100 µM (inactive) | > 100 µM (inactive) | > 100 µM (inactive) | > 100 µM (inactive) | > 100 µM (inactive) | > 100 µM (inactive) | > 100 µM (inactive) | > 100 µM (inactive) | > 100 µM (inactive) | > 100 µM (inactive)
13 | O=C(OCc1ccccc1)c1ccc(NCc2cc(O)ccc2O)cc1 | 1.36 µM (inactive) | 7.43 µM (inactive) | 0.35 µM (active) | 1.52 µM (inactive) | 1.14 µM (inactive) | 0.372 µM (active) | 1.51 µM (inactive) | 1.6 µM (inactive) | 0.575 µM (active) | 2.05 µM (inactive) | 1.51 µM (inactive) | 3.15 µM (inactive) | 1.67 µM (inactive) | 1.91 µM (inactive) | 0.902 µM (active) | 2.15 µM (inactive) | 1.09 µM (active) | 1.23 µM (inactive) | 2.42 µM (inactive)
14 | CCCC[Si](CCCC)(CCCC)O[C@@H](/C=C/C(=O)OCC)[C@H](Cc1ccccc1)O[Si](CCCC)(CCCC)CCCC | > 100 µM (inactive) | > 100 µM (inactive) | > 100 µM (inactive) | > 100 µM (inactive) | > 100 µM (inactive) | > 100 µM (inactive) | > 100 µM (inactive) | > 100 µM (inactive) | > 100 µM (inactive) | > 100 µM (inactive) | > 100 µM (inactive) | > 100 µM (inactive) | > 100 µM (inactive) |  | > 100 µM (inactive) | > 100 µM (inactive) | > 100 µM (inactive) | > 100 µM (inactive) | > 100 µM (inactive)
